The target in the assay is Tsrp1. Briefly: localized surface plasmon resonance, Tsrp1 immobilised on NTA chip, one-to-one model. It counts as binding, Rhodococcus ruber. Particulars: HEPES-buffered saline pH 7.4; c-di-GMP 62.5-500 μM; unit printed as mM in b36 but μM in abstract; read-out: dissociation constant.

One compound from paper PMC11985408, “Tsrp1 Is a Novel Cyclic Diguanosine Monophosphate Effector that Plays a Role in the Organic-Solvent Tolerance of Rhodococcus ruber” (Journal of Microbiology and Biotechnology, 2025) can be followed below.

The structures appear in SMILES notation.

On to `Nc1nc2c(ncn2[C@@H]2O[C@@H]3COP(=O)(O)O[C@H]4[C@@H](O)[C@H](n5cnc6c(=O)[nH]c(N)nc65)O[C@@H]4COP(=O)(O)O[C@H]3[C@H]2O)c(=O)[nH]1` [c-di-GMP], for which the Kd was 0.064 ± 0.00684 mM.
